Experimental data: patent US20250282895A1, “PHARMACEUTICAL COMPOSITIONS OF CHEMOTHERAPEUTIC AGENTS BASED ON BETA-S[…]-AMINO ACID DERIVATIVES” (priority 2021, published 2025)

Legend:
Type in all cases: physicochemical
[1] = Comparative stability, Formulation 3 (based on Evomela, SBE6.5-β-CD); details: Formulation 3, 25° C., 0.4-0.5 mg/mL, pH 5.8-6.1 (melphalan), pH 5-6 (Compound (1c)•HCl)
Procedure: (§1) The stability of Compound (1c) either as the HCl salt or as the free base was compared to the stability of melphalan HCl and/or bendamustine HCl in various pharmaceutical formulations and at different concentrations and at temperatures of 0° C. or 25° C.
(§2) The stability of the compounds in the pharmaceutical formulations was determined at concentrations within the range from 0.4 mg/mL to 0.5 mg/mL, from 0.9 mg/mL to 1.1 mg/mL, and from 1.8 mg/mL to 2.1 mg/mL.
(§3) The amount of the active pharmaceutical ingredient (API) (Compound (1c), melphalan or bendamustine) in the pharmaceutical formulations at different times during storage was determined using HPLC/UV as described in detail for Example 4 and Example 5.
Evomela® is an injectable formulation of melphalan hydrochloride, 4-[bis(2-chloroethyl)amino]-L-phenylalanine hydrochloride, approved by the FDA. Evomela® is supplied as a sterile white to off-white lyophilized powder in a single-dose vial for intravenous use. Each vial containing 50 mg melphalan free base equivalent to 56 mg melphalan hydrochloride and 2,700 mg betadex sulfobutyl ether (SBE6.5-β-CD; sulfobutyl ether β-cyclodextrin sodium) sodium, NF. Normal saline solution (0.9% Sodium Chloride Injection, USP) (8.6 mL as directed) is used to reconstitute Evomela® to a total of 10 mL having a 5 mg/mL nominal concentration of melphalan. The required volume of Evomela® needed for a patient dose is withdrawn from the vial(s) and added to the appropriate volume of 0.9% Sodium Chloride Injection, USP, to a final nominal concentration of 0.45 mg/mL of melphalan. This solution is then infused via an injection port or central venous catheter.
A series of 12 mL glass vials each containing 5.5 mg (0.0165 mmol of Compound (1c) free base and 270 mg of SBE6.5-β-CD, Captisol®) were prepared as described in Example 4.
The cyclodextrin derivative/Compound (1c) free base guest-host inclusion complex was reconstituted by dissolving the guest-host inclusion complex in 0.86 mL of 0.9% saline to provide 1.0 mL of a solution having a nominal concentration of 5.5 mg/mL of Compound (1c) free base.
(§4) A 1.0 mL aliquot of this solution was diluted with 10.0 mL of 0.9% saline, and the pH adjusted with 5 μL of a saturated aqueous NaHCO3 solution to provide 11.0 mL of a clear, colorless solution having a nominal concentration of 0.50 mg/mL of Compound (1c) from Compound (1c) free base and a pH from 5.8 to 6.1.
as §4, with “4.5” for “10.0”, “5.5” for “11.0”, “1.0” for “0.50”, “of about” for “from 5.8 to”
as §4, with “1.75” for “10.0”, “2.75” for “11.0”, “2.0” for “0.50”, “of about” for “from 5.8 to”
A series of 12 mL glass vials each containing 6.1 mg (0.0165 mmol of Compound (1c) mono-hydrochloride salt (corresponding to 5.5 mg of Compound (1c) free base) and 270 mg of SBE6.5-β-CD, Captisol®) were prepared as described in Example 5.
The cyclodextrin derivative/Compound (1c) mono-HCl salt guest-host inclusion complex was reconstituted by dissolving the guest-host inclusion complex in 0.86 mL of 0.9% saline to provide 1.0 mL of a solution having a nominal concentration of 6.1 mg/mL of Compound (1c) mono-HCl salt (corresponding to a nominal concentration of 5.5 mg/mL of the Compound (1c) free base).
as §4, with “0.5” for “1.0”, “5.0” for “10.0”, “5.5” for “11.0”, “mono-hydrochloride” for “free base”, “5.3” for “5.8”, “5.5. […]” for “6.1.”

[2] = Comparative stability, Formulation 4 (based on Treanda, mannitol); details: pH 4-5 (bendamustine), pH 4 (Compound (1c)•HCl)
Procedure: as §1, §2, §3
Treanda® is an injectable formulation of bendamustine hydrochloride, 1H-benzimidazole-2-butanoic acid, 5-[bis(2-chloroethyl)amino]-1-methyl-, 4-(5-(bis(2-chloroethyl)amino)-1-methyl-1H-benzo[d]imidazol-2-yl) butanoic acid monohydrochloride approved by the FDA. Treanda® for injection is provided in a vial containing either 25 or 100 mg of bendamustine HCl as a white to off-white lyophilized powder. Each vial contains either 25 mg or 100 mg of bendamustine hydrochloride and 42.5 mg or 170 mg of mannitol, USP, which is reconstituted in either 0.9% sodium chloride injection, USP, or 2.5% dextrose/0.45% sodium chloride solution injection, USP to a final concentration of 0.2 mg/mL-0.6 mg/mL and adjusted to a pH from 2.5 to 3.5.
A series of 12 mL glass vials each containing 12.5 mg (0.0317 mmol) of bendamustine mono-hydrochloride salt (C16H21C12N3O2·HCl, 394.72 g/mol; MedKoo, 200470) (corresponding to 11.3 mg of bendamustine as the free base) were prepared through weighing out the commercial compound into the vials. To each of the vials either containing bendamustine mono-hydrochloride salt was added 21.3 mg (0.117 mmol) of D-mannitol (C6H14O6, MW 182.17 g/mol; SigmaAldrich, M1902). The mixtures were dissolved in 2.0 mL of double distilled water (dd-H2O) (Arrowhead), the clear colorless solutions were frozen at −78° C. (dry ice/acetone bath), and the solvents were lyophilized off at about 100 mTorr within about 16 h to afford colorless solids.
A stock solution was prepared by dissolving 85.0 mg (0.255 mmol) of Compound (1c) (free base) and 170.4 mg of D-mannitol (0.935 mmol) (C6H14O6, MW 182.17 g/mol; SigmaAldrich, M1902), and 0.503 mL of 0.5072 M aq. HCl (0.255 mmol, 1.0 eq.) (Fluka, 318957) in about 16.0 mL of a mixture of acetonitrile/water (1:1, v/v) with vortexing in clean graduated glass cylinder (25 mL) to afford a stock solution of Compound (1c) as a mono-HCl salt of a concentration of 5.313 mg/mL and a D-mannitol concentration of 10.65 mg/mL. This solution was filtered through a 0.22 μm PTFE syringe filter into a clean 25 mL Erlenmeyer flask. Aliquots of 2.0 mL (2× 1.0 mL; 2× 5.313 mg) of this stock solution were rapidly pipetted into clean 12 mL scintillation vials. The aliquots were frozen at −78° C. (dry ice/acetone bath) and lyophilized at about 100 mTorr for about 16 hours to provide test vials each containing 11.8 mg (0.0319 mmol) of Compound (1c) mono-hydrochloride salt (mono-HCl salt) (corresponding to 10.6 mg of Compound (1c) as a free base) and 21.3 mg (0.117 mmol) of D-mannitol as a colorless powdery solid.
The materials in the vials were dissolved 2.5 mL of double-distilled water (dd-H2O) (Arrowhead) to provide clear colorless, non-viscous stock solutions of a concentration of 4.24 mg/mL of Compound (1c) as the monohydrochloride salt or 4.54 mg/mL of bendamustine as the mono-hydrochloride salt, respectively.
1.0 mL of the stock solution containing 4.24 mg/mL of Compound (1c) as the monohydrochloride salt was diluted with 9.0 mL of 0.9% saline to afford 10.0 mL of a test solution of a concentration of 0.424 mg/mL of Compound (1c) as the monohydrochloride salt and with a pH of about 4. […]

[3] = Stability of Compound (1c) free base in PBS buffer (LC/MS/MS); details: PBS buffer pH 7.4, 37° C., 1 μM
Procedure: A stability assay was carried out in 96-well microtiter plates. (S)-3-Amino-4-(5-(bis(2-chloroethyl)amino)-2-methylphenyl) butanoic acid (Compound (1c) free base) was incubated at 37° C. in phosphate buffered saline (PBS buffer), pH 7.4. The reaction mixtures (30 μL) contained a final concentration of 1 μM of Compound (1c). The percent Compound (1c) remaining in the mixture was determined using LC/MS/MS.
At each of the sampling time points, 300 μL of quench solution (50 vol-% acetonitrile, 50 vol-% methanol containing 1.3% (v/v) of 6N HCl) with internal standards (bucetin for positive ESI mode; warfarin for negative ESI mode) was transferred to each well. Plates were sealed and centrifuged at 4° C. for 15 min at 4,000 rpm. The supernatant was transferred to new plates for LC/MS/MS analysis.
All samples were analyzed on LC/MS/MS using an AB Sciex API 4000® instrument, coupled to a Shimadzu LC-20AD LC Pump system. Analytical samples were separated using a Waters Atlantis T3 dC18 reverse phase HPLC column (20 mm×2.1 mm) at a flow rate of 0.4 mL/min. The mobile phases consisted of 0.1% formic acid in water (solvent A) and 0.1% formic acid in 100% acetonitrile (solvent B).

SMILES: N[C@@H](Cc1ccc(N(CCCl)CCCl)cc1)C(=O)O [Melphalan free base, melphalan, reference compound]
- % API ([1]; 0.5 hours): 97%
- % API ([1]; 2.0 hours): 84%

SMILES: Cl.Cn1c(CCCC(=O)O)nc2cc(N(CCCl)CCCl)ccc21 [Bendamustine•HCl, 4-(5-(bis(2-chloroethyl)amino)-1-methyl-1H-benzo[d]imidazol-2-yl) butanoic acid monohydrochloride, reference compound]
- % API ([2]; Formulation 4, 0° C., 0.5 hours, 0.4-0.5 mg/mL): 98%
- % API ([2]; Formulation 4, 0° C., 2.0 hours, 0.4-0.5 mg/mL): 95%
- % API ([2]; Formulation 4, 25° C., 0.5 hours, 0.4-0.5 mg/mL): 98%
- % API ([2]; Formulation 4, 25° C., 0.5 hours, 0.9-1.1 mg/mL): 97%
- % API ([2]; Formulation 4, 25° C., 0.5 hours, 1.8-2.1 mg/mL): 95%
- % API ([2]; Formulation 4, 25° C., 2.0 hours, 0.4-0.5 mg/mL): 91%
- % API ([2]; Formulation 4, 25° C., 2.0 hours, 0.9-1.1 mg/mL): 95%
- % API ([2]; Formulation 4, 25° C., 2.0 hours, 1.8-2.1 mg/mL): 89%

SMILES: Cc1ccc(N(CCCl)CCCl)cc1C[C@H](N)CC(=O)O [Compound (1c), (S)-3-amino-4-(5-(bis(2-chloroethyl)amino)-2-methylphenyl) butanoic acid]
- Compound (1c) Remaining (%) ([3]; 0 min): 100%
- Compound (1c) Remaining (%) ([3]; 15 min): 78%
- Compound (1c) Remaining (%) ([3]; 30 min): 68%
- Compound (1c) Remaining (%) ([3]; 60 min): 56%
- Compound (1c) Remaining (%) ([3]; 120 min): 30%
- Compound (1c) Remaining (%) ([3]; 240 min): 10%
